Reference: patent US20180105881A1, “METHOD FOR DETERMINING THE SURVIVAL PROGNOSIS OF A PATIENT SUFFERING FROM PANCREATIC CANCER” (ACOBIOM, priority 2014, published 2018)

System: pancreatic cancer
Experiment: Overall survival of pancreatic cancer patients treated with gemcitabine (reference population, blood taken before treatment)
Format: in vivo, Homo sapiens
Details: patients treated with gemcitabine who have the genetic pro-metastatic fingerprint
Protocol: Samples of whole blood from 61 patients, taken before treatment, packaged in PAXgene tubes in dry ice (supplier: LabConnect, United States) were received and stored at −80° C. They were designated “week 0”.
The RNA samples were divided into 2 groups: • M4: corresponding to the patients who received gemcitabine after collection of the reference blood samples, and who died before month 4; • M15: corresponding to the patients who received gemcitabine after collection of the reference blood samples, and were alive after month 15.
An additional pharmacogenomic study was also carried out. Samples of the RNA from blood from 61 patients were taken before any treatment, and they were analysed by RT-PCR.
The patients treated with gemcitabine who have the genetic pro-metastatic fingerprint have a low overall survival rate (OS) (5.0 months).

Nc1ccn([C@@H]2O[C@H](CO)[C@@H](O)C2(F)F)c(=O)n1 [Gemcitabine]
overall survival time: 5.0 months
